We go through 4 compounds from publication PMC6611794, “Development of a high-throughput strategy for discovery of potent analogues of antibiotic lysocin E” (Nature Communications, 2019).

Structures are written as SMILES. “Also recorded” adds a separate entry of the source. Like-named read-outs stand apart in the source and are kept apart here. Where a SMILES comes first, the peptide text is derived from it. Bridges are numbered along the chain shown (N, C = ends). [ ]: non-standard residue; d: D form. The star is where a group is joined. Hexanoyl(3R-OH,5-Me) = CC(C)C[C@@H](O)CC(=O)*; dNMeF = CN[C@H](Cc1ccccc1)C(=O)O; dOrn = NCCC[C@@H](N)C(=O)O

The test system of experiment [1] is S. aureus Smith ATCC 13709. Description: Antimicrobial activity assay of bead-derived peptides (one-bead, microscale). The settings on record: for antimicrobial activity: 85% of one-bead-derived crude peptide, 40 μL Mueller Hinton Broth with 10% calf serum, 37 °C, 18 h. The class given is cell-based, Staphylococcus aureus. On the set-up: key to antimicrobial activity: ++: inhibition; +: partial inhibition; -: no inhibition. As for the experimental part:
Finally, a microscale antimicrobial assay was developed to evaluate the activity of 1 in solution phase.
Antimicrobial activity assay of bead-derived peptides. To the crude peptides in the 96-well round-bottom plate was added DMSO (1 µL/well). To the solution of peptides in each well was added a suspension of S. aureus Smith ATCC 13709 strain in 10% calf serum containing cation adjusted Müller Hinton Broth [40 µL, 2 ×10^5 colony forming units (CFU) , 21 g/L Müller Hinton Broth (Difco), 5 0 mg/L Ca2+ (adjusted with CaCl2• 2H2O), and 25 mg/L Mg 2+ (adjusted with MgCl 2•6H2O)]. The plate was incubated at 37 °C for 18 h, and the precipitation of the grown cells was examined. […]

How the values of experiment [2] were obtained:
(§1) Preparation of LUVs consisting of PC/PG/MK-4 or PC/PG/UQ-10. To a solution of egg yolk phosphatidylcholine (9.48 mg, 12.4 µmol) and egg yolk phosphatidylglycerol (9.66 mg, 12.4 µmol) in CHCl3 (0.208 mL) was added a solution of MK-4 (2) or UQ-10 (3) (0.313 µmol) in CHCl3 (21.8 µL). The solution was concentrated, and dried under vacuum to for m a lipid thin film. The thin film was hydrated and suspended in carboxyfluorescein-containing buffer solution (0.500 mL, 5 mM HEPES, 20 mM carboxyfluorescein , pH 7.5) by vortexing and sonication. After five-times freeze-thaw cycles, the lipid suspension was extruded 19 times through a polycarbonate filter with 0.40 µm of pore siz e in the diameter.
(§2) The external carboxyfluorescein -containing buffer was replaced with a carboxyfluorescein -free buffer solution (20 mM HEPES, 1 mM EDTA, pH 7.5) through size exclusion chromatography using disposable PD -10 column. Concentration of egg yolk phosphatidylcholine was determined by using Phospholipid C -Test Wako.
(§3) The final concentration of egg yolk phosphatidylcholine was adjusted to 4.0 µM with the carboxyfluorescein -free buffer solution, and the solution was used for membrane disruption ass ay.
(§4) Membrane disruption assay. […]
(§5) to various concentrations as 5-fold serial dilutions. The solution of peptides (2 µL/well) and the carboxyfluorescein-encapsulated LUV suspension (200 µL/well) were mixed in black polystyrene flat-bottom 96-well plates. The final concentration of peptides ranged from 2970 nM to 0.950 nM. The plates were vortexed at room temperature for 30 min, and then fluorescence of carboxyfluorescein (Ex. 490 nm/Em. 517 nm) of each well was measured at room temperature on Gemini EM microplate reader. Trion X-100/H2O (5/95, 2 µL), MeOH/H2O (4/6, 2 µL), and the LUV suspension were mixed in each plate to determine 100% lysis. MeOH/H2O (4/6, 2 µL) and the LUV suspension were mixed in each plate to determine 0% lysis.
(§6) The membrane disruption activities of tested peptides (I) were normalized against 100% lysis by Triton X -100 […]
(§7) (Imax) and 0% lysis by MeOH/H2O (4/6) (I0) as following, where Ix is the fluorescence intensity (Supplementary Equation 2).
(§8) I = 100 × (Ix – I0) / (Imax – I0) (2)
(§9) The membrane-disrupting activities were evaluated as half-maximal response (EC50, nM) values by means of three replicates. Sigmoidal curve fittings were performed on R2 with drc package (Supplementary Figs S7–S9).3 Two-parameter logistic model was applied for the fitting.

A short description of experiment [3]: Liposomal membrane disruption assay (carboxyfluorescein LUVs). Type of experiment: biochemical. As for the experimental part:
as §1, §2, §3
as §5, with “Membrane disruption assay. Peptides 1, A1–A22, B1–B5, and C1–C5 were diluted with MeOH/H2O (4/6) to various” for “to various”
as §6, §7, §8, §9

Assay in experiment [4]: as above
The class given is biochemical. As for the experimental part:
Preparation of LUVs consisting of PC/PG. Carboxyfluorescein-encapsulated large unilamellar vesicles (LUVs) were prepared according to the thin-film hydration method, followed by extrusion through Nuclepore polycarbonate filters (GE Healthcare) mounted in the mini-extruder apparatus (Avanti Polar Lipids). A solution of egg yolk phosphatidylcholine (9.60 mg, 12.5 µmol) and egg yolk phosphatidylglycerol (9.78 mg, 12.5 µmol) in CHCl3 (0.505 mL) was concentrated, and dried under vacuum to form a lipid thin film. The thin film was hydrated and suspended in carboxyfluorescein-containing buffer solution [0.500 mL, 5 mM 4-(2-hydroxyethyl)-1-piperazineethanesulfonic acid (HEPES), 20 mM carboxyfluorescein, pH 7.5] by vortexing and sonication. After five -times freeze-thaw cycles, the lipid suspension was extruded 19 times through a polycarbonate filter with 0.40 µm of pore size in the diameter. The external carboxyfluorescein -containing buffer was replaced w ith a carboxyfluorescein -free buffer solution [20 mM HEPES, 1 mM ethylenediaminetetraacetic acid (EDTA), pH 7.5] through size exclusion chromatography using disposable PD-10 column (GE Healthcare). Concentration of egg yolk phosphatidylcholine was determined by using Phospholipid C-Test Wako (Fujifilm Wako Pure Chemical). The final concentration of egg yolk phosphatidylcholine was adjusted to 4.0 µM with the carboxyfluorescein-free buffer solution, and the solution was used for membrane disruption assay. […]
as §4, §5, §6, §7, §8, §9
The source holds these as a separate data set.

Where [5] appears, read: read-out: EC50 PC/PG/2 1st, PC/PG/2 LUVs, 1st experiment.
Setting [6] is: read-out: EC50 PC/PG/2 2nd, PC/PG/2 LUVs, 2nd experiment.
The mark [7] stands for this setting: read-out: EC50 PC/PG/2 3rd, PC/PG/2 LUVs, 3rd experiment.
Setting [8] is: read-out: EC50 PC/PG/2, 30 min, room temperature, mean ± SD of three independent experiments.
Where [9] appears, read: 30 min, room temperature, mean ± SD of three independent experiments, read-out: EC50 PC/PG/3.
Where [10] appears, read: PC/PG/3 LUVs, 1st experiment, read-out: EC50 PC/PG/3 1st.
Setting [11] is: PC/PG/3 LUVs, 2nd experiment, read-out: EC50 PC/PG/3 2nd.
Setting [12] is: PC/PG/3 LUVs, 3rd experiment, read-out: EC50 PC/PG/3 3rd.
[13] abbreviates: 30 min, room temperature, mean ± SD of three independent experiments, read-out: EC50 PC/PG.
Setting [14] is: PC/PG LUVs, 1st experiment, read-out: EC50 PC/PG 1st.
Where [15] appears, read: PC/PG LUVs, 2nd experiment, read-out: EC50 PC/PG 2nd.
Setting [16] is: PC/PG LUVs, 3rd experiment, read-out: EC50 PC/PG 3rd.

Regarding `CC[C@H](C)[C@@H]1NC(=O)[C@@H](Cc2c[nH]c3ccccc23)NC(=O)[C@@H](CCC(N)=O)NC(=O)[C@H](CCC(=O)O)NC(=O)[C@@H](CCCNC(=N)N)NC(=O)[C@H](CC(C)C)NC(=O)[C@@H](Cc2ccccc2)N(C)C(=O)CNC(=O)[C@H](C)NC(=O)[C@@H](CCCNC(=N)N)NC(=O)[C@@H](NC(=O)C[C@H](O)CC(C)C)[C@@H](C)OC(=O)[C@H]([C@@H](C)O)NC1=O` [Peptide A1] ({Hexanoyl(3R-OH,5-Me)}-T[dR]AG[dNMeF]L[dR]E[dQ][dW]IT; ester 1-C), in experiment [1], the antimicrobial activity result is “+”. For the same compound, the EC50 in experiment [2] (setting [5]) stood at 25.9 nM; in experiment [2] (setting [6]), 4.68 nM; in experiment [2] (setting [7]) it was 6.1 nM; in experiment [2] (setting [8]), 12.2 ± 11.9 nM; in experiment [3] (setting [9]) it was 92.7 ± 31.3 nM; in experiment [3] (setting [10]), 128 nM. Further, the EC50 in experiment [3] (setting [11]) was determined as 82.1 nM; in experiment [3] (setting [12]), 68.1 nM; in experiment [4] (setting [13]) it was 975 ± 195 nM; in experiment [4] (setting [14]) it was 1080 nM; in experiment [4] (setting [15]), 1090 nM; in experiment [4] (setting [16]) it was 750 nM.

With `CC[C@H](C)[C@@H]1NC(=O)[C@@H](Cc2c[nH]c3ccccc23)NC(=O)[C@@H](Cc2ccc(O)cc2)NC(=O)[C@H](CCC(=O)O)NC(=O)[C@@H](CCCNC(=N)N)NC(=O)[C@H](CC(C)C)NC(=O)[C@@H](Cc2ccccc2)N(C)C(=O)CNC(=O)[C@H](CC(=O)O)NC(=O)[C@@H](CCCNC(=N)N)NC(=O)[C@@H](NC(=O)C[C@H](O)CC(C)C)[C@@H](C)OC(=O)[C@H]([C@@H](C)O)NC1=O` [Peptide A17] ({Hexanoyl(3R-OH,5-Me)}-T[dR]DG[dNMeF]L[dR]E[dY][dW]IT; ester 1-C), the antimicrobial activity entry in experiment [1] is listed as “+”. In addition, the EC50 was 437 nM in experiment [2] (setting [5]); 178 nM in experiment [2] (setting [6]); 144 nM in experiment [2] (setting [7]); 253 ± 160 nM in experiment [2] (setting [8]); > 1500 nM in experiment [3] (setting [9]); > 1500 nM in experiment [3] (setting [10]). Further, the EC50 in experiment [3] (setting [11]), in experiment [3] (setting [12]), in experiment [4] (setting [13]), in experiment [4] (setting [14]), in experiment [4] (setting [15]) and in experiment [4] (setting [16]) was > 1500 nM in each case.

Take `CC[C@H](C)[C@@H]1NC(=O)[C@@H](Cc2c[nH]c3ccccc23)NC(=O)[C@@H](CCC(N)=O)NC(=O)[C@H](CCC(=O)O)NC(=O)[C@@H](CCCNC(=N)N)NC(=O)[C@H](CC(C)C)NC(=O)[C@@H](Cc2ccccc2)N(C)C(=O)CNC(=O)[C@H](CO)NC(=O)[C@@H](CCCNC(=N)N)NC(=O)[C@@H](NC(=O)C[C@H](O)CC(C)C)[C@@H](C)OC(=O)[C@H]([C@@H](C)O)NC1=O` [Peptide 1, Lysocin E] ({Hexanoyl(3R-OH,5-Me)}-T[dR]SG[dNMeF]L[dR]E[dQ][dW]IT; ester 1-C): the “growth inhibition of S. aureus Smith ATCC 13709” value in experiment [1] (10% BCS-doped Mueller Hinton Broth (40 μL), natural 1 0.04 μg per well or 85% of single bead-derived 1 (0.21 μg), duplicate) is given as “Complete growth inhibition; also recorded: completely inhibit the growth”. In addition, the antimicrobial activity result in experiment [1] was “++”. The “selectivity index (EC50 against PC/PG/3 divided by EC50 against PC/PG/2)” value in experiment [2] is recorded as 4.7. The EC50 in experiment [2] (setting [5]) came out at 16.7 nM; in experiment [2] (setting [6]), 34 nM; in experiment [2] (setting [7]), 7.9 nM; in experiment [2] (setting [8]) it was 19.5 nM; in experiment [3] (setting [9]), 92 nM; in experiment [3] (setting [10]), 58 nM. Besides, the EC50 in experiment [3] (setting [11]) is 167 nM; in experiment [3] (setting [12]), 51.6 nM; in experiment [4] (setting [13]), 559 nM; in experiment [4] (setting [14]), 527 nM; in experiment [4] (setting [15]) it was 689 nM; in experiment [4] (setting [16]), 460 nM.

Consider `CC[C@H](C)[C@@H]1NC(=O)[C@@H](Cc2c[nH]c3ccccc23)NC(=O)[C@@H](CCCN)NC(=O)[C@H](CCC(=O)O)NC(=O)[C@@H](CCCNC(=N)N)NC(=O)[C@H](CC(C)C)NC(=O)[C@@H](Cc2ccccc2)N(C)C(=O)CNC(=O)[C@H](CC(=O)O)NC(=O)[C@@H](CCCNC(=N)N)NC(=O)[C@@H](NC(=O)C[C@H](O)CC(C)C)[C@@H](C)OC(=O)[C@H]([C@@H](C)O)NC1=O` [Peptide A16] ({Hexanoyl(3R-OH,5-Me)}-T[dR]DG[dNMeF]L[dR]E[dOrn][dW]IT; ester 1-C), for which the antimicrobial activity entry in experiment [1] is “+”. Further, the “selectivity index (EC50 against PC/PG/3 divided by EC50 against PC/PG/2)” value in experiment [2] worked out at 20.6. For the same compound, the EC50 worked out at 70.1 nM in experiment [2] (setting [5]); 33.5 nM in experiment [2] (setting [6]); 17.1 nM in experiment [2] (setting [7]); 40.3 ± 27.1 nM in experiment [2] (setting [8]); 832 ± 243 nM in experiment [3] (setting [9]); 892 nM in experiment [3] (setting [10]). In addition, the EC50 was 1040 nM in experiment [3] (setting [11]); 565 nM in experiment [3] (setting [12]); > 1500 nM in experiment [4] (setting [13]); > 1500 nM in experiment [4] (setting [14]); > 1500 nM in experiment [4] (setting [15]); > 1500 nM in experiment [4] (setting [16]).
